Reference: ChEMBL document CHEMBL1201862, “PubChem BioAssay data set” (2004)
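Test compounds were applied to cells in 96-well plates for 48 hours at 5 doses. GI50: concentration for 50% inhibition of growth.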 The source made the active and inactive calls. Cut-off read from the data, not from the text of the source: active = GI50 up to about 1.1 µM and inactive = higher.

Key:
Test in all cases: NCI-60 cell line screen, 48 h
[1] = test system: KM12
[2] = test system: NCI-H23
[3] = test system: MOLT-4
[4] = test system: A549
[5] = test system: K562
[6] = test system: SF-268
[7] = test system: HCC 2998
[8] = test system: RPMI-8226
[9] = test system: SK-MEL-28
[10] = test system: DMS-273
[11] = test system: SR
[12] = test system: ACHN
[13] = test system: IGROV-1
[14] = test system: SNB-19
[15] = test system: Malme-3M
[16] = test system: SF-295
[17] = test system: SW-620
[18] = test system: HCT-116
[19] = test system: UO-31
[20] = test system: HL-60
[21] = test system: HOP-92
[22] = test system: UACC-257
[23] = test system: 786-0
[24] = test system: HCT-15
[25] = test system: SNB-78
[26] = test system: OVCAR-3
[27] = test system: LOX IMVI
[28] = test system: KM-20L2
[29] = test system: RXF 631
[30] = test system: M19-MEL
[31] = test system: DMS-114
[32] = test system: CCRF-CEM
[33] = test system: A498
[34] = test system: EKVX
[35] = test system: U-251
[36] = test system: COLO 205
[37] = test system: HT-29
[38] = test system: M14
[39] = test system: SNB-75
[40] = test system: HOP-62
[41] = test system: SN12C
[42] = test system: UACC-62
[43] = test system: OVCAR-8
[44] = test system: SF-539
[45] = test system: CAKI-1
[46] = test system: TK-10
[47] = test system: NCI-H522
[48] = test system: OVCAR-5
[49] = test system: LXFL 529
[50] = test system: DLD-1
[51] = test system: HOP-18
[52] = test system: NCI-H460
[53] = test system: NCI-H226
[54] = test system: SK-MEL-5
[55] = test system: OVCAR-4
[56] = test system: SK-OV-3
[57] = test system: SK-MEL-2
[58] = test system: RXF 393

COc1ccccc1NC(=O)C1=C(C)NC(C)=C(C(=O)Nc2ccccc2OC)C1c1ccccc1OC
GI50 [1]: > 100 µM (inactive)
GI50 [2]: > 100 µM (inactive)
GI50 [3]: 54.5 µM (inactive)
GI50 [4]: > 100 µM (inactive)
GI50 [5]: 60.5 µM (inactive)
GI50 [6]: > 100 µM (inactive)
GI50 [7]: > 100 µM (inactive)
GI50 [8]: 75.9 µM (inactive)
GI50 [9]: > 100 µM (inactive)
GI50 [10]: > 100 µM (inactive)
GI50 [11]: 83.2 µM (inactive)
GI50 [12]: 74.5 µM (inactive)
GI50 [13]: > 100 µM (inactive)
GI50 [14]: > 100 µM (inactive)
GI50 [15]: > 100 µM (inactive)
GI50 [16]: > 100 µM (inactive)
GI50 [17]: > 100 µM (inactive)
GI50 [18]: 38.9 µM (inactive)
GI50 [19]: > 100 µM (inactive)
GI50 [20]: 75.2 µM (inactive)
GI50 [21]: > 100 µM (inactive)
GI50 [22]: > 100 µM (inactive)
GI50 [23]: > 100 µM (inactive)
GI50 [24]: > 100 µM
GI50 [25]: > 100 µM (inactive)
GI50 [26]: 80.4 µM (inactive)
GI50 [27]: > 100 µM (inactive)
GI50 [28]: > 100 µM (inactive)
GI50 [29]: > 100 µM (inactive)
GI50 [30]: > 100 µM (inactive)
GI50 [31]: 85.5 µM (inactive)
GI50 [32]: > 100 µM (inactive)
GI50 [33]: > 100 µM (inactive)
GI50 [34]: > 100 µM (inactive)
GI50 [35]: > 100 µM (inactive)
GI50 [36]: 36.9 µM (inactive)
GI50 [37]: > 100 µM (inactive)
GI50 [38]: > 100 µM (inactive)
GI50 [39]: 19.3 µM (inactive)
GI50 [40]: > 100 µM (inactive)
GI50 [41]: > 100 µM (inactive)
GI50 [42]: > 100 µM (inactive)
GI50 [43]: > 100 µM (inactive)
GI50 [44]: > 100 µM (inactive)
GI50 [45]: > 100 µM (inactive)
GI50 [46]: > 100 µM (inactive)
GI50 [47]: > 100 µM (inactive)
GI50 [48]: > 100 µM (inactive)
GI50 [49]: > 100 µM (inactive)
GI50 [50]: > 100 µM (inactive)
GI50 [51]: > 100 µM (inactive)
GI50 [52]: 97.3 µM (inactive)
GI50 [53]: > 100 µM (inactive)
GI50 [54]: > 100 µM (inactive)
GI50 [55]: 69 µM (inactive)
GI50 [56]: > 100 µM (inactive)
GI50 [57]: > 100 µM (inactive)

COc1ccc2nc3cc(Cl)ccc3c(Sc3ccc(NC(C)=O)cc3)c2c1
GI50 [1]: 9.33 µM (inactive)
GI50 [2]: 13.8 µM (inactive)
GI50 [3]: 6.87 µM (inactive)
GI50 [4]: > 53.2 µM (inactive)
GI50 [5]: 9.71 µM (inactive)
GI50 [7]: 2.74 µM (inactive)
GI50 [8]: 26.3 µM (inactive)
GI50 [9]: 12.8 µM (inactive)
GI50 [10]: 8.09 µM (inactive)
GI50 [11]: 3.66 µM (inactive)
GI50 [12]: 4.86 µM (inactive)
GI50 [13]: > 32.4 µM (inactive)
GI50 [15]: > 35.2 µM (inactive)
GI50 [16]: > 25.9 µM (inactive)
GI50 [17]: 14.2 µM (inactive)
GI50 [18]: 17.9 µM (inactive)
GI50 [20]: 19.4 µM (inactive)
GI50 [22]: 17.4 µM (inactive)
GI50 [23]: 8.15 µM (inactive)
GI50 [25]: 5.6 µM (inactive)
GI50 [27]: 5.73 µM (inactive)
GI50 [28]: > 21.3 µM (inactive)
GI50 [29]: 8.85 µM (inactive)
GI50 [30]: 10.9 µM (inactive)
GI50 [31]: 6.84 µM (inactive)
GI50 [32]: 9.18 µM (inactive)
GI50 [33]: > 41.7 µM (inactive)
GI50 [36]: 14.8 µM (inactive)
GI50 [37]: 92.3 µM (inactive)
GI50 [38]: 11.6 µM (inactive)
GI50 [39]: > 24 µM (inactive)
GI50 [40]: > 41.7 µM (inactive)
GI50 [41]: 14.9 µM (inactive)
GI50 [42]: 15.3 µM (inactive)
GI50 [43]: 8.28 µM (inactive)
GI50 [44]: 12.3 µM (inactive)
GI50 [45]: > 27 µM (inactive)
GI50 [46]: > 36.2 µM (inactive)
GI50 [47]: 2.79 µM (inactive)
GI50 [48]: > 29 µM (inactive)
GI50 [49]: 7.31 µM (inactive)
GI50 [50]: 6.89 µM (inactive)
GI50 [51]: > 29.9 µM (inactive)
GI50 [52]: > 26.3 µM (inactive)
GI50 [58]: 12.6 µM (inactive)
GI50 [54]: > 29.3 µM (inactive)
GI50 [55]: > 24.4 µM (inactive)
GI50 [56]: > 22.4 µM (inactive)
GI50 [57]: 12.3 µM (inactive)

O=C(CCC(=O)C1Cc2ccccc2C1=O)Nc1cccc(C(F)(F)F)c1 (stereo not drawn)
GI50 [1]: > 100 µM (inactive)
GI50 [2]: > 100 µM (inactive)
GI50 [3]: > 100 µM (inactive)
GI50 [4]: > 100 µM (inactive)
GI50 [5]: > 100 µM (inactive)
GI50 [6]: > 100 µM (inactive)
GI50 [7]: > 100 µM (inactive)
GI50 [9]: > 10 µM (inactive)
GI50 [10]: > 100 µM (inactive)
GI50 [12]: > 100 µM (inactive)
GI50 [13]: > 100 µM (inactive)
GI50 [14]: > 100 µM (inactive)
GI50 [15]: > 100 µM (inactive)
GI50 [16]: > 100 µM (inactive)
GI50 [17]: > 100 µM (inactive)
GI50 [18]: > 100 µM (inactive)
GI50 [19]: > 100 µM (inactive)
GI50 [20]: > 100 µM (inactive)
GI50 [21]: > 100 µM (inactive)
GI50 [22]: > 100 µM (inactive)
GI50 [23]: > 100 µM (inactive)
GI50 [24]: > 100 µM
GI50 [25]: > 100 µM (inactive)
GI50 [26]: > 100 µM (inactive)
GI50 [27]: > 100 µM (inactive)
GI50 [28]: > 100 µM (inactive)
GI50 [29]: > 100 µM (inactive)
GI50 [30]: > 100 µM (inactive)
GI50 [32]: > 100 µM (inactive)
GI50 [34]: > 100 µM (inactive)
GI50 [35]: > 100 µM (inactive)
GI50 [36]: > 100 µM (inactive)
GI50 [37]: > 100 µM (inactive)
GI50 [38]: > 100 µM (inactive)
GI50 [40]: > 100 µM (inactive)
GI50 [41]: > 100 µM (inactive)
GI50 [42]: > 100 µM (inactive)
GI50 [43]: > 100 µM (inactive)
GI50 [44]: > 100 µM (inactive)
GI50 [45]: > 100 µM (inactive)
GI50 [46]: > 100 µM (inactive)
GI50 [48]: > 100 µM (inactive)
GI50 [49]: > 100 µM (inactive)
GI50 [50]: > 100 µM (inactive)
GI50 [51]: > 100 µM (inactive)
GI50 [52]: > 100 µM (inactive)
GI50 [53]: > 100 µM (inactive)
GI50 [58]: > 100 µM (inactive)
GI50 [54]: > 100 µM (inactive)
GI50 [55]: > 100 µM (inactive)
GI50 [56]: > 100 µM (inactive)
GI50 [57]: > 100 µM (inactive)
